# Measurements reported in article PMC9019100, “Development of NanoLuc-targeting protein degraders and a universal reporter system to benchmark tag-targeted degradation platforms” (Nature Communications, 2022).
# “And” between values parts separate entries of the source, which are not always exact repeats. Equal values may be shown once. Read-outs that look alike come from different tables or passages of the source.
# Assays:
# wild-type HT29 cells = assay: Necroptosis assay (PI exclusion, flow cytometry), wild-type HT29 cells, TNF+SM+IDN; assay type: cell-based, human; settings: sheet S5H
# Method: To simulate necroptosis, cells were seeded into 96-well plates ±40 ng/mL doxycycline, to induce construct expression, and treated with 100 ng/mL FLAG-TNF (recombinant human, in-house), 500 nM compound A Smac mimetic (kindly gifted by TetraLogics Pharmaceuticals) and 5 μM IDN-6556 (Cayman) or 10 uM Z-VAD-fmk (Selleckchem) overnight (16–24 h). Degrader compounds or a DMSO vehicle control were added for 5 h, as stated in the Fig. legends. Cells were detached using Trypsin-EDTA (Merck) and resuspended in cell supernatants containing 10 μg/mL propidium iodide (PI). PI exclusion analysis was performed using an LSR II flow cytometer (Becton Dickinson, NJ) with 10,000 single-cell events per sample. Flow cytometry data were analysed using WEASEL version 2.7 software (Frank Battye).
# Supplementary Figure 5. […]
# NC4. Data are representative of N = 3 independent experiments. f-h. HT29 cells were stimulated with DMSO (control) or 500 nM of degrader for 5 hours before the addition of TNF (100 ng/mL) + Smac mimetic (compound A; 500 nM-1 µM) + caspase inhibitor; Emricasan (IDN) (5 µM), for 24 hours. Cell death was assessed by flow cytometric analysis of PI exclusion. N = 3 replicates (symbols) is shown, EB; mean ± SD. Data are representative of N = 3 independent experiments. i. Representative flow cytometry gating strategy. Source data are provided as a Source Data file.
# murine MLKL-FKBP^F36V = target: T1, murine MLKL-FKBP^F36V (Homo sapiens, UniProt P62942, F37V); assay type: cell-based; settings: 31.2-500 nM, 5 h
# T1 construct: expressed in transfected cells; host or cells: Mlkl-/- mouse dermal fibroblasts, doxycycline-inducible
# T1 sequence (P62942 whole entry F37V): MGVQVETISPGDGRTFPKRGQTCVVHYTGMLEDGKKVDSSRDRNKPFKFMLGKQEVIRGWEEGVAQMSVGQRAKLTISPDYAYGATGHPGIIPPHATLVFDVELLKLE
# [1] = test system: MLKL^−/− HT29 cells expressing MLKL-FKBP^F36V; assay type: cell-based; settings: for Live cells (%PI negative) after TNF+911+zVAD: MLKL-/- + MLKL FKBPF36V, independent experiments
# [2] = target: T2, Halo-EGFP-NanoLuc-FKBP^F36V (H-E-N-F) fusion protein (UniProt P0A3G2+P62942+Q9GV45, A155T/A167V/A172T/A224E/A31E/A60N/A81I/C128F/C176G/D78G/E160K/E257K/F37V/F95D/H272N/I117V/K175M/K195N/K70R/L47V/L54V/L88M/L99Q/M102K/N193R/N227D/P142E/P291S/Q151K/Q38R/Q45L/S2A/S58T/T264A/V71I/Y165I/Y273L/Y87F); assay type: cell-based; set-up: expressed in transfected cells; host or cells: immortalized mouse dermal fibroblasts (iMDFs), ubiquitin promoter, constitutive; settings: 500 nM; for time up to which degradation was maintained, degrader removed at 5 h: 24 or 48 h after removal
# Fibrillarin-FKBP^F36V = target: T3, Fibrillarin-FKBP^F36V (Homo sapiens, UniProt P62942, F37V); assay type: cell-based; settings: 500 nM, 10 h
# T3 construct: endogenous in cells; host or cells: 293T, CRISPR/PITCh knock-in at the FBL locus
# T3 sequence (P62942 whole entry F37V): as above
# [3] = target: T2, Halo-EGFP-NanoLuc-FKBP^F36V (H-E-N-F) fusion protein; assay type: cell-based; settings: for Blank corrected (470-80) luminescence / Blank corrected Raw Data (470-80): +dox; for Blank corrected (470-80) luminescence: single well replicates; for Blank corrected (470-80): sheet S3B; for Blank corrected (470-80) / Blank corrected Raw Data (470-80): replicate wells; for Blank corrected Raw Data (470-80): PROTAC 500nM
# [4] = test system: MLKL^−/− HT29 cells expressing untagged MLKL; assay type: cell-based; settings: for Live cells (%PI negative) after TNF+911+zVAD: independent experiments
# [5] = test system: MLKL^−/− HT29 cells expressing MLKL-Halo; assay type: cell-based
# Fibrillarin-Halo = target: T4, Fibrillarin-Halo (Rhodococcus rhodochrous, UniProt P0A3G2, A155T/A167V/A172T/A224E/C128F/C176G/D78G/E160K/E257K/H272N/K175M/K195N/L47V/L88M/N227D/P291S/S2A/S58T/T264A/Y273L/Y87F); assay type: cell-based; settings: 500 nM, 10 h
# T4 construct: endogenous in cells; host or cells: 293T, CRISPR/PITCh knock-in at the FBL locus
# T4 sequence (P0A3G2 other isoform, or with tags, fused parts or gaps with the stated changes): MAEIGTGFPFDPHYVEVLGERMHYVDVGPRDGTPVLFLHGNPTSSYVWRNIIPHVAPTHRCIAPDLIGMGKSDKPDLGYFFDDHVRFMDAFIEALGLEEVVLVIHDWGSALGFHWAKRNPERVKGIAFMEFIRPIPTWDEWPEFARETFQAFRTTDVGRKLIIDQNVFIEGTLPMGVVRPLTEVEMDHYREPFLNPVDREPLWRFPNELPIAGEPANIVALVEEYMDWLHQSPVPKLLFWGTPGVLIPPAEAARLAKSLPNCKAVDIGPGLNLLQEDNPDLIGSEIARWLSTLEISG
# [6] = cited from earlier work
compound,measurement,setting,value
CC[C@H](C(=O)N1CCCC[C@H]1C(=O)O[C@H](CCc1ccc(OC)c(OC)c1)c1ccccc1OCC(=O)NCCCCCCOc1cccc2c1C(=O)N(C1CCC(=O)NC1=O)C2=O)c1cc(OC)c(OC)c(OC)c1 (stereo partly shown) [FC1],viable cells (PI exclusion),wild-type HT29 cells; TNF+SM+IDN,8.5 and 5.7 and 7.1
same,viable cells (PI exclusion),wild-type HT29 cells; Untreated (no death stimulus),77.5 and 79.3 and 78.7
same,degradation of murine MLKL-FKBP^F36V,murine MLKL-FKBP^F36V,comparable degradation
same,concentration sustaining cell survival over 24 h,[1],62.5 nM
same,Live cells (%PI negative) after TNF+911+zVAD,[1]; 31.25nM,75.8 and 59.7 and 66 and 51.4
same,Live cells (%PI negative) after TNF+911+zVAD,[1]; 62.5nM,81.5 and 75.5 and 67.7 and 62.5
same,Live cells (%PI negative) after TNF+911+zVAD,[1]; 250nM,83.3 and 81.2 and 68.1 and 65
same,Live cells (%PI negative) after TNF+911+zVAD,[1]; 500nM,83.3 and 81.7 and 67.1 and 65
same,Live cells (%PI negative) after TNF+911+zVAD,[1]; 1000nM,81 and 84.9 and 67.9 and 54.3
same,"time up to which degradation was seen, degrader left in the medium","[2]; 5, 24 or 48 h",up to 48 h
same,"time up to which degradation was maintained, degrader removed at 5 h",[2],up to 48 h
same,Dmax (densitometry),Fibrillarin-FKBP^F36V,~ 70%
same,Blank corrected (470-80) luminescence,[3]; 3.9nM PROTAC,74602 and 77149 and 76062 and 81411
same,Blank corrected (470-80) luminescence,[3]; 7.8nM PROTAC,59479 and 62985 and 66400
same,Blank corrected (470-80) luminescence,[3]; 31.25nM PROTAC,36339 and 35562 and 38426
same,Blank corrected (470-80) luminescence,[3]; 62.5nM PROTAC,25282 and 26898 and 23798 and 25010
same,Blank corrected (470-80),[3]; 62.5nM,88170.7 and 89328.7 and 91847.7 and 71716.7
same,Blank corrected (470-80) luminescence,[3]; 250nM PROTAC,11621 and 12159 and 11550
same,Blank corrected (470-80),[3]; 250nM,43826.7 and 54015.7 and 43806.7 and 52617.7
same,Blank corrected (470-80) luminescence,"[3]; 500nM PROTAC, 5h",14990 and 16286 and 14132
same,Blank corrected (470-80) luminescence,"[3]; 500nM PROTAC, 8h",14691 and 12990 and 15151
same,Blank corrected (470-80) luminescence,"[3]; 500nM PROTAC, 24h",19581 and 16848 and 19949 and 18475
same,Blank corrected (470-80) luminescence,[3]; 500nM PROTAC,10379 and 10950 and 11612
same,Blank corrected (470-80),[3]; 500nM,41968.7 and 40671.7 and 43532.7 and 41295.7
same,Blank corrected (470-80) luminescence,[3]; 1uM PROTAC,13507 and 14074 and 13991 and 15263
same,Blank corrected (470-80),[3]; 1uM,51312.7 and 60071.7 and 47699.7 and 53692.7
same,Blank corrected Raw Data (470-80),[3]; DMSO (control) co-treatment,8854 and 8375 and 8376 and 8057
same,Blank corrected Raw Data (470-80),[3]; co-treatment with MG132 (10uM),80455 and 95513 and 84222 and 82486
same,Live cells (%PI negative) after TNF+911+zVAD,"[4]; MLKL-/- + MLKL, 3.9nM",6.9 and 6.6 and 8.9 and 5.1
same,Live cells (%PI negative) after TNF+911+zVAD,"[4]; MLKL-/- + MLKL, 7.8nM",6.1 and 5.8 and 8.5 and 4.8
same,Live cells (%PI negative) after TNF+911+zVAD,"[4]; MLKL-/- + MLKL, 31.25nM",5.7 and 5.5 and 8.3 and 4.7
same,Live cells (%PI negative) after TNF+911+zVAD,"[4]; MLKL-/- + MLKL, 62.5nM",6.6 and 6 and 9 and 4.5
Cc1ncsc1-c1ccc(CNC(=O)[C@@H]2C[C@@H](O)CN2C(=O)[C@@H](NC(=O)C2(C#N)CC2)C(C)(C)C)c(OCCOCCOCCOCCCCCCCl)c1 [HV2],viable cells (PI exclusion),wild-type HT29 cells; TNF+SM+IDN,9.6 and 6.1 and 6.3
same,viable cells (PI exclusion),wild-type HT29 cells; Untreated (no death stimulus),75.8 and 75.3 and 68.5
same,TNF+911+zVAD (PI exclusion),[5],75.3 and 62.1 and 72
same,concentration required to maintain cell survival,[5],125 nM
same,TNF+911+zVAD (PI exclusion),"[5]; MLKL-/- + MLKL HALO, TNF+911+zVAD, degrader 3.9nM, replicate columns",6.8 and 4 and 7.3
same,TNF+911+zVAD (PI exclusion),"[5]; MLKL-/- + MLKL HALO, TNF+911+zVAD, degrader 7.8nM, replicate columns",6.9 and 4.5 and 9.3
same,TNF+911+zVAD (PI exclusion),"[5]; MLKL-/- + MLKL HALO, TNF+911+zVAD, degrader 31.25nM, replicate columns",33 and 22.8 and 23.9
same,TNF+911+zVAD (PI exclusion),"[5]; MLKL-/- + MLKL HALO, TNF+911+zVAD, degrader 62.5nM, replicate columns",77 and 48.6 and 62.6
same,TNF+911+zVAD (PI exclusion),"[5]; MLKL-/- + MLKL HALO, TNF+911+zVAD, degrader 250nM, replicate columns",88.6 and 71.9 and 68.6
same,TNF+911+zVAD (PI exclusion),"[5]; MLKL-/- + MLKL HALO, TNF+911+zVAD, degrader 500nM, replicate columns",85.7 and 70.1 and 67.1
same,TNF+911+zVAD (PI exclusion),"[5]; MLKL-/- + MLKL HALO, TNF+911+zVAD, degrader 1000nM, replicate columns",77.8 and 71.5 and 66.8
same,Dmax (densitometry),Fibrillarin-Halo,~ 94.8%
same,"time up to which degradation was maintained, degrader removed at 5 h",[2],depletion not maintained
same,Blank corrected (470-80) luminescence,[3]; 3.9nM PROTAC,79470 and 68951 and 78183 and 76420
same,Blank corrected (470-80) luminescence,[3]; 7.8nM PROTAC,72797 and 64329 and 67516 and 60174
same,Blank corrected (470-80) luminescence,[3]; 31.25nM PROTAC,46917 and 44939 and 48832 and 45085
same,Blank corrected (470-80) luminescence,[3]; 62.5nM PROTAC,40512 and 37700 and 38124 and 40329
same,Blank corrected (470-80) luminescence,[3]; 250nM PROTAC,30717 and 30890 and 31914 and 28801
same,Blank corrected (470-80) luminescence,"[3]; 500nM PROTAC, 5h",69924 and 50626 and 73472 and 59650
same,Blank corrected (470-80) luminescence,"[3]; 500nM PROTAC, 8h",70698 and 62420 and 68286 and 57616
same,Blank corrected (470-80) luminescence,"[3]; 500nM PROTAC, 24h",56615 and 44142 and 53902 and 55861
same,Blank corrected (470-80) luminescence,[3]; 500nM PROTAC,27860 and 28299 and 29718 and 30521
same,Blank corrected (470-80) luminescence,[3]; 1uM PROTAC,27861 and 28948 and 28638 and 31530
same,Blank corrected Raw Data (470-80),[3]; DMSO (control) co-treatment,30990 and 24165 and 26494 and 23014
same,Blank corrected Raw Data (470-80),[3]; co-treatment with MG132 (10uM),55749 and 70265 and 64908 and 78527
same,TNF+911+zVAD (PI exclusion),[4],6.7 and 3.6 and 5.5
same,TNF+911+zVAD (PI exclusion),"[4]; MLKL-/- + MLKL, TNF+911+zVAD, degrader 3.9nM, replicate columns",7.3 and 3.4 and 6.6
same,TNF+911+zVAD (PI exclusion),"[4]; MLKL-/- + MLKL, TNF+911+zVAD, degrader 7.8nM, replicate columns",7.3 and 4.5 and 5.7
same,TNF+911+zVAD (PI exclusion),"[4]; MLKL-/- + MLKL, TNF+911+zVAD, degrader 31.25nM, replicate columns",9.7 and 4.3 and 5.6
same,TNF+911+zVAD (PI exclusion),"[4]; MLKL-/- + MLKL, TNF+911+zVAD, degrader 62.5nM, replicate columns",7.8 and 3.5 and 5.8
same,TNF+911+zVAD (PI exclusion),"[4]; MLKL-/- + MLKL, TNF+911+zVAD, degrader 250nM, replicate columns",6.5 and 3.9 and 5.8
same,TNF+911+zVAD (PI exclusion),"[4]; MLKL-/- + MLKL, TNF+911+zVAD, degrader 500nM, replicate columns",8.6 and 4.3 and 7.2
same,TNF+911+zVAD (PI exclusion),"[4]; MLKL-/- + MLKL, TNF+911+zVAD, degrader 1000nM, replicate columns",8.3 and 4 and 5.4
CO[C@H]1C[C@@H]2CC[C@@H](C)[C@@](O)(O2)C(=O)C(=O)N2CCCC[C@H]2C(=O)O[C@H]([C@H](C)C[C@@H]2CC[C@@H](OCCOCc3cn(CCOCCOCCNc4cccc5c4C(=O)N(C4CCC(=O)NC4=O)C5=O)nn3)[C@H](OC)C2)CC(=O)[C@H](C)/C=C(/C)[C@@H](O)[C@@H](OC)C(=O)[C@H](C)C[C@H](C)\C=C/C=C\C=C/1C (stereo partly shown) [RC32],depletion of substrates in animals,[6],efficient depletion of substrates
same,tolerability in animals,[6],well tolerated
